Measurements: patent EP0554004A2, “Cephem compounds and antibacterial agents” (KATAYAMA SEIYAKUSYO CO. Ltd., priority 1992, dated 1993)
In brackets after ≈: the same amount, converted by molar mass.

Key:
Assay type in all cases: cell-based
[1] = system: Bacillus subtilis ATCC 6633; experiment: MIC against standard strains (Test Example 1); conditions: ATCC6633, Muller-Hinton agar, 37°C overnight
Protocol: (§1) By using each test strain cultured overnight at 37°C in a Muller-Hinton broth, there was prepared a bacterial solution with a bacterial cell population of 1 x 10^6 CFU/mi of the same bouillon. The bacterial solution was inoculated into the Muller-Hinton agar media each containing respectively one test agent and, after overnight incubation at 37°C, the minimum concentration that inhibited growth of the bacteria was determined and shown as MIC also in Table 1.
(§2) Staphylococcus aureus 167 and Staphylococcus aureus 195 used in the test were MRSA. CTM (cefotiam) and FMOX (flomoxef) were used as control agents.

[2] = system: Citrobacter freundii ATCC 8090; experiment: MIC against standard strains (Test Example 1); conditions: ATCC8090, Muller-Hinton agar, 37°C overnight
Protocol: as §1, §2

[3] = system: Enterobacter cloacae ATCC 13407; experiment: MIC against standard strains (Test Example 1); conditions: ATCC13407, Muller-Hinton agar, 37°C overnight
Protocol: as §1, §2

[4] = system: Escherichia coli CSH2 (RE45); experiment: MIC against standard strains (Test Example 1)
Protocol: as §1, §2

[5] = system: Escherichia coli CSH2 (RK1); experiment: MIC against standard strains (Test Example 1)
Protocol: as §1, §2

[6] = system: Escherichia coli NIHJ JC-2; experiment: MIC against standard strains (Test Example 1); conditions: NIHJJC2, Muller-Hinton agar, 37°C overnight
Protocol: as §1, §2

[7] = system: Klebsiella pneumoniae IFO 3317; experiment: MIC against standard strains (Test Example 1); conditions: IFO3317, Muller-Hinton agar, 37°C overnight
Protocol: as §1, §2

[8] = system: Klebsiella pneumoniae No. 42; experiment: MIC against standard strains (Test Example 1); conditions: Muller-Hinton agar, 37°C overnight
Protocol: as §1, §2

[9] = system: Micrococcus luteus ATCC 9341; experiment: MIC against standard strains (Test Example 1); conditions: ATCC9341, Muller-Hinton agar, 37°C overnight
Protocol: as §1, §2

[10] = system: Morganella morganii IFO 3848; experiment: MIC against standard strains (Test Example 1); conditions: IFO3848, Muller-Hinton agar, 37°C overnight
Protocol: as §1, §2

[11] = system: Proteus mirabilis IFO 3849; experiment: MIC against standard strains (Test Example 1); conditions: IFO3849, Muller-Hinton agar, 37°C overnight
Protocol: as §1, §2

Proteus vulgalis OX-19 = experiment: MIC against standard strains (Test Example 1); conditions: Muller-Hinton agar, 37°C overnight
Protocol: as §1, §2

[12] = system: Pseudomonas aeruginosa NCTC 10490; experiment: MIC against standard strains (Test Example 1); conditions: NCTC10490, Muller-Hinton agar, 37°C overnight
Protocol: as §1, §2

[13] = system: Psuedomonas aeruginosa IFO 3445; experiment: MIC against standard strains (Test Example 1); conditions: Muller-Hinton agar, 37°C overnight
Protocol: as §1, §2

[14] = system: Serratia marcescens IAM 1184; experiment: MIC against standard strains (Test Example 1); conditions: IAM1184, Muller-Hinton agar, 37°C overnight
Protocol: as §1, §2

[15] = system: Staphylococcus aureus 167; experiment: MIC against standard strains (Test Example 1); conditions: Staphylococcus aureus 167 (MRSA); Muller-Hinton agar, 37°C overnight
Protocol: as §1, §2

[16] = system: Staphylococcus aureus 195; experiment: MIC against standard strains (Test Example 1); conditions: Staphylococcus aureus 195 (MRSA); Muller-Hinton agar, 37°C overnight
Protocol: as §1, §2

[17] = system: Staphylococcus aureus 209P JC-1; experiment: MIC against standard strains (Test Example 1); conditions: Muller-Hinton agar, 37°C overnight
Protocol: as §1, §2

[18] = system: Staphylococcus aureus Smith; experiment: MIC against standard strains (Test Example 1); conditions: Muller-Hinton agar, 37°C overnight
Protocol: as §1, §2

[19] = system: Staphylococcus epidermidis IAM 1296; experiment: MIC against standard strains (Test Example 1); conditions: IAM1296, Muller-Hinton agar, 37°C overnight
Protocol: as §1, §2

A. calcoaceticos T59 = experiment: MIC against standard strains (Test Example 3); conditions: A. calcoaceticos T59 (Test Example 3); read-out: MIC
Protocol: as §1
(§3) The minimum growth inhibitory concentration was determined for each of the 21 standard strains shown in Table 3, according to the same method as used in Test Example 1.
(§4) In the test, FMOX (flomoxef), CTM (cefotiam) and CEZ (cefazolin) were used as control agents.

A. faecalis ATCC3750 = experiment: MIC against standard strains (Test Example 3); conditions: Alcaligenes faecalis; A. faecalis ATCC3750 (Test Example 3); read-out: MIC
Protocol: as §1, §3, §4

B. subtilis ATCC6633 = experiment: MIC against standard strains (Test Example 3); conditions: Bacillus subtilis; B. subtilis ATCC6633 (Test Example 3); read-out: MIC
Protocol: as §1, §3, §4

C. freundii ATCC8090 = experiment: MIC against standard strains (Test Example 3); conditions: Citrobacter freundii; C. freundii ATCC8090 (Test Example 3); read-out: MIC
Protocol: as §1, §3, §4

E. cloacae ATCC13407 = experiment: MIC against standard strains (Test Example 3); conditions: Enterobacter cloacae; E. cloacae ATCC13407 (Test Example 3); read-out: MIC
Protocol: as §1, §3, §4

E. coli CSH2 (RE45) = experiment: MIC against standard strains (Test Example 3); conditions: Escherichia coli
Protocol: as §1, §3, §4

E. coli CSH2 (RK1) = experiment: MIC against standard strains (Test Example 3); conditions: Escherichia coli
Protocol: as §1, §3, §4

E. coli NIHJ JC-2 = experiment: MIC against standard strains (Test Example 3); conditions: Escherichia coli, NIHJJC2; E. coli NIHJ JC-2 (Test Example 3); read-out: MIC
Protocol: as §1, §3, §4

K. pneumoniae IFO3317 = experiment: MIC against standard strains (Test Example 3); conditions: Klebsiella pneumoniae; K. pneumoniae IFO3317 (Test Example 3); read-out: MIC
Protocol: as §1, §3, §4

K. pneumoniae No. 42 = experiment: MIC against standard strains (Test Example 3); conditions: Klebsiella pneumoniae; K. pneumoniae No. 42 (Test Example 3); read-out: MIC
Protocol: as §1, §3, §4

M. Morganii IFO3848 = experiment: MIC against standard strains (Test Example 3); conditions: Morganella morganii; M. Morganii IFO3848 (Test Example 3); read-out: MIC
Protocol: as §1, §3, §4

M. luteus ATCC 9341 = experiment: MIC against standard strains (Test Example 3); conditions: Micrococcus luteus, ATCC9341; M. luteus ATCC 9341 (Test Example 3); read-out: MIC
Protocol: as §1, §3, §4

P. aeruginosa NCTC10490 = experiment: MIC against standard strains (Test Example 3); conditions: Pseudomonas aeruginosa; P. aeruginosa NCTC10490 (Test Example 3); read-out: MIC
Protocol: as §1, §3, §4

P. mirabilis IFO3849 = experiment: MIC against standard strains (Test Example 3); conditions: Proteus mirabilis; P. mirabilis IFO3849 (Test Example 3); read-out: MIC
Protocol: as §1, §3, §4

P. vulugaris OX-19 = experiment: MIC against standard strains (Test Example 3); conditions: P. vulugaris OX-19 (Test Example 3); read-out: MIC
Protocol: as §1, §3, §4

S. aureus 167 = experiment: MIC against standard strains (Test Example 3); conditions: Staphylococcus aureus; S. aureus 167 (MRSA) (Test Example 3); read-out: MIC
Protocol: as §1, §3, §4

S. aureus 195 = experiment: MIC against standard strains (Test Example 3); conditions: Staphylococcus aureus; S. aureus 195 (MRSA) (Test Example 3); read-out: MIC
Protocol: as §1, §3, §4

S. aureus 209p JC-1 = experiment: MIC against standard strains (Test Example 3); conditions: Staphylococcus aureus; S. aureus 209p JC-1 (Test Example 3); read-out: MIC
Protocol: as §1, §3, §4

S. aureus Smith = experiment: MIC against standard strains (Test Example 3); conditions: Staphylococcus aureus; S. aureus Smith (Test Example 3); read-out: MIC
Protocol: as §1, §3, §4

S. epidemidis IAM1296 = experiment: MIC against standard strains (Test Example 3); conditions: S. epidemidis IAM1296 (Test Example 3); read-out: MIC
Protocol: as §1, §3, §4

S. marcescens IAM1184 = experiment: MIC against standard strains (Test Example 3); conditions: Serratia marcescens; S. marcescens IAM1184 (Test Example 3); read-out: MIC
Protocol: as §1, §3, §4

With `CN(C)CCn1nnnc1SCC1=C(C(=O)O)N2C(=O)[C@@H](NC(=O)Cc3csc(N)n3)[C@H]2SC1` [CTM, cefotiam, reference compound] as the molecule, how does the MIC [1] read?
Its MIC is 0.2 µg/mL (≈ 0.38 µM).

And the MIC [2]?
The MIC was 0.78 µg/mL (≈ 1.48 µM).

And the MIC [3]?
Its MIC is 50 µg/mL (≈ 95.1 µM).

What about the MIC [4] of the same molecule?
Its MIC is 0.2 µg/mL (≈ 0.38 µM).

And the MIC [5]?
Its MIC is 0.2 µg/mL (≈ 0.38 µM).

And the MIC [6]?
Its MIC is 0.1 µg/mL (≈ 0.19 µM).

And the MIC [7]?
The MIC was 0.1 µg/mL (≈ 0.19 µM).

What about the MIC [8] of the same molecule?
The MIC was 0.39 µg/mL (≈ 0.742 µM).

What about the MIC [9] of the same molecule?
The MIC was 0.39 µg/mL (≈ 0.742 µM).

And the MIC [10]?
Its MIC is 0.1 µg/mL (≈ 0.19 µM).

And the MIC [11]?
Its MIC is 0.39 µg/mL (≈ 0.742 µM).

And the MIC (Proteus vulgalis OX-19)?
Its MIC is 0.39 µg/mL (≈ 0.742 µM).

And the MIC [12]?
The MIC was greater than 100 µg/mL.

What about the MIC [13] of the same molecule?
The MIC was greater than 100 µg/mL.

And the MIC [14]?
The MIC was 3.13 µg/mL (≈ 5.95 µM).

And the MIC [15]?
The MIC was greater than 100 µg/mL.

And the MIC [16]?
Its MIC is greater than 100 µg/mL.

What about the MIC [17] of the same molecule?
The MIC was 0.2 µg/mL (≈ 0.38 µM).

What about the MIC [18] of the same molecule?
Its MIC is 0.39 µg/mL (≈ 0.742 µM).

What about the MIC [19] of the same molecule?
Its MIC is 0.2 µg/mL (≈ 0.38 µM).

What about the MIC (A. calcoaceticos T59) of the same molecule?
Its MIC is 100 µg/mL (≈ 190 µM).

What about the MIC (A. faecalis ATCC3750) of the same molecule?
The MIC was 1.56 µg/mL (≈ 2.97 µM).

What about the MIC (B. subtilis ATCC6633) of the same molecule?
Its MIC is 0.2 µg/mL (≈ 0.38 µM).

And the MIC (C. freundii ATCC8090)?
Its MIC is 0.78 µg/mL (≈ 1.48 µM).

And the MIC (E. cloacae ATCC13407)?
Its MIC is 3.13 µg/mL (≈ 5.95 µM).

And the MIC (E. coli CSH2 (RE45))?
The MIC was 0.1 µg/mL (≈ 0.19 µM).

What about the MIC (E. coli CSH2 (RK1)) of the same molecule?
Its MIC is 0.1 µg/mL (≈ 0.19 µM).

What about the MIC (E. coli NIHJ JC-2) of the same molecule?
Its MIC is 0.1 µg/mL (≈ 0.19 µM).

And the MIC (K. pneumoniae IFO3317)?
Its MIC is 0.05 µg/mL (≈ 0.0951 µM).

What about the MIC (K. pneumoniae No. 42) of the same molecule?
Its MIC is 0.39 µg/mL (≈ 0.742 µM).

What about the MIC (M. Morganii IFO3848) of the same molecule?
Its MIC is 0.1 µg/mL (≈ 0.19 µM).

What about the MIC (M. luteus ATCC 9341) of the same molecule?
The MIC was 0.39 µg/mL (≈ 0.742 µM).

What about the MIC (P. aeruginosa NCTC10490) of the same molecule?
The MIC was greater than 100 µg/mL.

And the MIC (P. mirabilis IFO3849)?
The MIC was 0.39 µg/mL (≈ 0.742 µM).

And the MIC (P. vulugaris OX-19)?
The MIC was 0.39 µg/mL (≈ 0.742 µM).

And the MIC (S. aureus 167)?
Its MIC is 100 µg/mL (≈ 190 µM).

What about the MIC (S. aureus 195) of the same molecule?
The MIC was greater than 100 µg/mL.

What about the MIC (S. aureus 209p JC-1) of the same molecule?
The MIC was 0.39 µg/mL (≈ 0.742 µM).

What about the MIC (S. aureus Smith) of the same molecule?
The MIC was 0.39 µg/mL (≈ 0.742 µM).

What about the MIC (S. epidemidis IAM1296) of the same molecule?
Its MIC is 0.2 µg/mL (≈ 0.38 µM).

What about the MIC (S. marcescens IAM1184) of the same molecule?
Its MIC is 1.56 µg/mL (≈ 2.97 µM).
